Earlier results on 1 compound are cited in US6613768B1, “Treatment of female arousal disorder” (Lilly ICOS LLC, priority 1999, dated 2003).

This data set concerns postmenopausal women with sexual dysfunction.

Molecules are shown by their SMILES. Counter-ions that a name gives are not always drawn.

Turning to `CCCc1nn(C)c2c(=O)[nH]c(-c3cc(S(=O)(=O)N4CCN(C)CC4)ccc3OCC)nc12` [sildenafil, Sildenafil citrate], for the setting “of the 7 women affected”, the “women with clitoral discomfort/hypersensitivity who withdrew from the study” value is 3. Besides, the “clitoral discomfort and hypersensitivity, number of women” value (thirty-three postmenopausal women) is on record as 7 woman.
